Assay results taken from paper PMC10415228 (Saudi Pharmaceutical Journal : SPJ, 2023).
In brackets after ≈: the same amount, converted by molar mass.

Tested on: trypsin (serine protease)
Assay: serine protease
Type: biochemical

IC50: 295.44 µg/mL (≈ 978 µM)
Structure (SMILES): O=c1c(O)c(-c2ccc(O)c(O)c2)oc2cc(O)cc(O)c12 [Quercetin]
